Measured values: US6881741B2 (ViroChem Pharma Inc., priority 2001, dated 2005)

Target: recombinant HCV NS5B (HCV RNA-dependent RNA polymerase) (Hepatitis C virus genotype 1b, UniProt P26663)
Assay: biochemical
Details: HCV polymerase activity, list of compounds of Example 27; read-out: IC50 (polymerase activity)

Chain of recombinant HCV NS5B (HCV RNA-dependent RNA polymerase) (P26663 2420-3010 limits assumed): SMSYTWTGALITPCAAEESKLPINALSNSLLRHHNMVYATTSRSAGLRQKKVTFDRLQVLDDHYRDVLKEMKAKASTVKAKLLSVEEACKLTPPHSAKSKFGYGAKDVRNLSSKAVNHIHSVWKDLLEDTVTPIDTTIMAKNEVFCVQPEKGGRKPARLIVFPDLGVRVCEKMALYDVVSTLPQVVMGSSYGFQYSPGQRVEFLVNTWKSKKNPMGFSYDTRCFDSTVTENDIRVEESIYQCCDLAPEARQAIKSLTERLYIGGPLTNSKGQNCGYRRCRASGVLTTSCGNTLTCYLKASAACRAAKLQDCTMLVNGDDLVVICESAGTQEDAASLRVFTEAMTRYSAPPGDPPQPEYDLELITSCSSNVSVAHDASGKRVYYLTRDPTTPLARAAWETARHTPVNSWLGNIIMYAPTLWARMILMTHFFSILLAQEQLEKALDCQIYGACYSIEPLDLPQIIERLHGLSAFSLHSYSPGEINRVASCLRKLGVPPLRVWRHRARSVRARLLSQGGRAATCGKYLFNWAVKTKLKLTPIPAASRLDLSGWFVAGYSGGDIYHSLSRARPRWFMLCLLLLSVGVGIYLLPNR

Structure (SMILES)	IC50
O=C(O)c1sc(-c2ccccc2)cc1N(Cc1ccccc1)C(=O)C1CC1 [Compound 454, 3-(BENZYL-CYCLOPROPANECARBONYL- AMINO)-5-PHENYL-THIOPHENE-2- CARBOXYLIC ACID]	< 5 µM
CC(=O)N(Cc1ccccc1C)c1cc(-c2ccccc2)sc1C(=O)O [Compound 426, 3-[ACETYL-(2-METHYL-BENZYL)-AMINO]- 5-PHENYL-THIOPHENE-2-CARBOXYLIC ACID]	> 20 µM
COc1cccc(CN(C(=O)C2CCC2)c2cc(-c3ccccc3)sc2C(=O)O)c1 [Compound 473, 3-[CYCLOBUTANECARBONYL-(3- METHOXY-BENZYL)-AMINO]-5-PHENYL- THIOPHENE-2-CARBOXYLIC ACID]	5 to 20 µM
CCC(=O)N(Cc1ccccc1)c1cc(-c2ccccc2)sc1C(=O)O [Compound 451, 3-(BENZYL-PROPIONYL-AMINO)-5- PHENYL-THIOPHENE-2-CARBOXYLIC ACID]	< 5 µM
CC1CCC(C(=O)N(c2cc(-c3ccccc3)sc2C(=O)O)C2COCOC2)CC1 (stereo not shown) [Compound 554, 3-[[1,3]DIOXAN-5-YL-(4-METHYL- CYCLOHEXANECARBONYL)-AMINO]-5- PHENYL-THIOPHENE-2-CARBOXYLIC ACID]	< 5 µM
CC(C)CC(=O)N(Cc1ccc(C(F)(F)F)cc1)c1cc(-c2ccccc2)sc1C(=O)O [Compound 412, 3-[(3-METHYL-BUTYRYL)-(4- TRIFLUOROMETHYL-BENZYL)-AMINO]-5- PHENYL-THIOPHENE-2-CARBOXYLIC ACID]	5 to 20 µM
CC1CCC(C(=O)N(c2cc(-c3ccc(F)cc3)sc2C(=O)O)C(C)C)CC1 (stereo not shown) [Compound 559, 5-(4-FLUORO-PHENYL)-3-[ISOPROPYL-(4- METHYL-CYCLOHEXANECARBONYL)- AMINO]-THIOPHENE-2-CARBOXYLIC ACID]	< 5 µM
CC1CCC(C(=O)N(c2cc(-c3ccc(C#N)cc3)sc2C(=O)O)C(C)C)CC1 (stereo not shown) [Compound 576, 5-(4-CYANO-PHENYL-3-[ISOPROPYL-(4- METHYL-CYCLOHEXANECARBONYL)- AMINO]-THIOPHENE-2-CARBOXYLIC ACID]	< 5 µM
O=C(NC1CCC(N(C(=O)c2ccc(Cl)cc2Cl)c2cc(-c3ccccc3)sc2C(=O)O)CC1)OCc1ccccc1 (stereo not shown) [Compound 515, 3-[(4-BENZYLOXYCARBONYLAMINO- CYCLOHEXYL)-(2,4-DICHLORO- BENZOYL)-AMINO]-5-PHENYL- THIOPHENE-2-CARBOXYLIC ACID]	< 5 µM
CC(C)N(C(=O)[C@H]1CC[C@H](C)C[C@H]1O)c1cc(-c2ccc(F)cc2)sc1C(=O)O [Compound 560]	< 5 µM
O=C(O)c1sc(-c2ccccc2)cc1N(CC1CCNCC1)C(=O)c1ccc(Cl)cc1Cl [Compound 519, 3-[(2,4-DICHLORO-BENZOYL)-PIPERIDIN- 4-YLMETHYL-AMINO]-5-PHENYL- THIOPHENE-2-CARBOXYLIC ACID]	< 5 µM

Same assay, conditions: related polymerase activity (Example 27 list); read-out: IC50

Structure (SMILES)	IC50
CN(C(=O)c1sc2ccccc2c1Cl)c1cc(-c2ccccc2)sc1C(=O)O [Compound 256, 3-[(3-CHLORO-BENZO[B]THIOPHENE-2-CARBONYL)-METHYL-AMINO]-5-PHENYL-THIOPHENE-2-CARBOXYLIC ACID]	5 to 20 µM
Cc1ccccc1S(=O)(=O)Nc1cc(-c2ccc(C(F)(F)F)cc2)sc1C(=O)O [Compound 88, 3-(TOLUENE-2-SULFONYLAMINO)-5-(4-TRIFLUOROMETHYL-PHENYL)-THIOPHENE-2-CARBOXYLIC ACID]	< 5 µM
O=C(O)c1sc(-c2ccccc2)cc1N(C(=O)c1ccc(Cl)cc1Cl)C1CCCC1 [Compound 201, 3-[CYCLOPENTYL-(2,4-DICHLORO-BENZOYL)-AMINO]-5-PHENYL-THIOPHENE-2-CARBOXYLIC ACID]	< 5 µM
CN(C(=O)c1ccc(Cl)cc1Br)c1cc(-c2ccccc2)sc1C(=O)O [Compound 284, 3-[(2-BROMO-4-CHLORO-BENZOYL)-METHYL-AMINO]-5-PHENYL-THIOPHENE-2-CARBOXYLIC ACID]	< 5 µM
Cc1ccc(C)c(S(=O)(=O)Nc2cc(-c3ccc(F)cc3)sc2C(=O)O)c1 [Compound 107, 3-(2,5-DIMETHYL-BENZENESULFONYLAMINO)-5-(4-FLUORO-PHENYL)-THIOPHENE-2-CARBOXYLIC ACID]	< 5 µM
Cc1cc(C)c(S(=O)(=O)Nc2cc(-c3ccccc3)sc2C(=O)O)c(C)c1 [Compound 298, 5-PHENYL-3-(2,4,6-TRIMETHYL- BENZENESULFONYLAMINO)- THIOPHENE-2-CARBOXYLIC ACID]	< 5 µM
Cc1ccccc1S(=O)(=O)Nc1cc(-c2ccc(N)cc2)sc1C(=O)O [Compound 165, 5-(4-AMINO-PHENYL)-3-(TOLUENE-2-SULFONYLAMINO)-THIOPHENE-2-CARBOXYLIC ACID]	5 to 20 µM
Cc1ccccc1S(=O)(=O)Nc1cc(CCc2ccccc2)sc1C(=O)O [Compound 120, 5-PHENETHYL-3-(TOLUENE-2-SULFONYLAMINO)-THIOPHENE-2-CARBOXYLIC ACID]	5 to 20 µM
O=C(O)c1sc(-c2ccccc2)cc1NS(=O)(=O)c1ccc(F)cc1F [Compound 27, 3-(2,4-DIFLUORO-BENZENESULFONYLAMINO)-5-PHENYL-THIOPHENE-2-CARBOXYLIC ACID]	< 5 µM
CC(C)N(C(=O)c1ccc(F)cc1)c1cc(-c2ccccc2)sc1C(=O)O [Compound 226, 3-[(4-FLUORO-BENZOYL)-ISOPROPYL-AMINO]-5-PHENYL-THIOPHENE-2-CARBOXYLIC ACID]	5 to 20 µM
N#Cc1ccc(-c2cc(NS(=O)(=O)c3ccc(Cl)cc3)c(C(=O)O)s2)cc1 [Compound 289, 3-(4-CHLORO-BENZENESULFONYLAMINO)-5-(4-CYANO-PHENYL)-THIOPHENE-2-CARBOXYLIC ACID]	< 5 µM
Cc1ccccc1S(=O)(=O)Nc1cc(-c2ccc(O)cc2)sc1C(=O)O [Compound 190, 5-(4-HYDROXY-PHENYL)-3-(TOLUENE-2-SULFONYLAMINO)-THIOPHENE-2-CARBOXYLIC ACID]	< 5 µM
CC(C)(C)OC(=O)N1CCC(N(C(=O)c2ccc(Cl)cc2Cl)c2cc(-c3ccccc3)sc2C(=O)O)CC1 [Compound 365, 4-[(2-CARBOXY-5-PHENYL-THIOPHEN-3- YL)-(2,4-DICHLORO-BENZOYL)-AMINO]- PIPERIDINE-1-CARBOXYLIC ACID #TERT!-BUTYL ESTER]	< 5 µM
O=C(O)c1sc(-c2ccccc2)cc1N(Cc1ccc(-c2cc3ccccc3o2)s1)C(=O)c1ccc(Cl)cc1Cl [Compound 12, 3-[(5-BENZOFURAN-2-YL-THIOPHEN-2-YLMETHYL)-(2,4-DICHLORO-BENZOYL)-AMINO]-5-PHENYL-THIOPHENE-2-CARBOXYLIC ACID]	5 to 20 µM
Cc1ccc(S(=O)(=O)Nc2cc(-c3ccc(CO)cc3)sc2C(=O)O)c(C)c1 [Compound 320, 3-(2,4-DIMETHYL- BENZENESULFONYLAMINO)-5-(4- HYDROXYMETHYL-PHENYL)- THIOPHENE-2-CARBOXYLIC ACID]	< 5 µM
CCCCCc1ccc(S(=O)(=O)Nc2cc(-c3ccccc3)sc2C(=O)O)cc1 [Compound 174, 3-(4-PENTYL-BENZENESULFONYLAMINO)-5-PHENYL-THIOPHENE-2-CARBOXYLIC ACID]	5 to 20 µM
O=C(O)c1sc(-c2ccccc2)cc1NS(=O)(=O)c1cc(Cl)c(O)c(Cl)c1 [Compound 169, 3-(3,5-DICHLORO-4-HYDROXY-BENZENESULFONYLAMINO)-5-PHENYL-THIOPHENE-2-CARBOXYLIC ACID]	5 to 20 µM
O=C(O)c1sc(-c2ccccc2)cc1NS(=O)(=O)c1ccccc1F [Compound 30, 3-(2-FLUORO-BENZENESULFONYLAMINO)-5-PHENYL-THIOPHENE-2-CARBOXYLIC ACID]	5 to 20 µM
Cc1ccc(C)c(S(=O)(=O)Nc2cc(-c3ccc([N+](=O)[O-])cc3)sc2C(=O)O)c1 [Compound 100, 3-(2,5-DIMETHYL-BENZENESULFONYLAMINO)-5-(4-NITRO-PHENYL)-THIOPHENE-2-CARBOXYLIC ACID]	< 5 µM
COC(=O)c1cc(S(=O)(=O)Nc2cc(-c3ccccc3)sc2C(=O)O)oc1C [Compound 154, 5-(2-CARBOXY-5-PHENYL-THIOPHEN-3-YLSULFAMOYL)-2-METHYL-FURAN-3-CARBOXYLIC ACID METHYL ESTER]	< 5 µM
Cc1cccc(S(=O)(=O)Nc2cc(-c3ccccc3)sc2C(=O)O)c1 [Compound 16, 5-PHENYL-3-(TOLUENE-3-SULFONYLAMINO)-THIOPHENE-2-CARBOXYLIC ACID]	5 to 20 µM
C=C(C)Cc1cc(N(C(=O)c2ccc(Cl)cc2Cl)C(C)C)c(C(=O)O)s1 [Compound 338, 3-[(2,4-DICHLORO-BENZOYL)- ISOPROPYL-AMINO]-5-(2-METHYL- ALLYL)-THIOPHENE- 2-CARBOXYLIC ACID]	< 5 µM
O=C(O)c1sc(-c2ccccc2)cc1NS(=O)(=O)c1ccc(F)c(C(F)(F)F)c1 [Compound 145, 3-(4-FLUORO-3-TRIFLUOROMETHYL-BENZENESULFONYLAMINO)-5-PHENYL-THIOPHENE-2-CARBOXYLIC ACID]	5 to 20 µM
Cc1ccc(C(=O)N(C)c2cc(-c3cccc(C#N)c3)sc2C(=O)O)cc1 [Compound 206, 5-(3-CYANO-PHENYL)-3-[METHYL-(4-METHYL-BENZOYL)-AMINO]-THIOPHENE-2-CARBOXYLIC ACID]	< 5 µM
CN(C(=O)c1cc(Cl)cc(Cl)c1)c1cc(-c2ccccc2)sc1C(=O)O [Compound 254, 3-[(3,5-DICHLORO-BENZOYL)-METHYL-AMINO]-5-PHENYL-THIOPHENE-2-CARBOXYLIC ACID]	5 to 20 µM
Cc1cc(Cl)ccc1C(=O)N(c1cc(-c2ccccc2)sc1C(=O)O)C(C)C [Compound 234, 3-[(4-CHLORO-2-METHYL-BENZOYL)-ISOPROPYL-AMINO]-5-PHENYL-THIOPHENE-2-CARBOXYLIC ACID]	< 5 µM
Cc1ccc(C(=O)N(c2cc(-c3ccccc3)sc2C(=O)O)C2CCN(C(=O)OC(C)(C)C)CC2)cc1 [Compound 364, 4-[(2-CARBOXY-5-PHENYL-THIOPHEN-3- YL)-(4-METHYL-BENZOYL)-AMINO]- PIPERIDINE-1-CARBOXYLIC ACID #TERT!-BUTYL ESTER]	< 5 µM
O=C(O)c1sc(-c2ccc([N+](=O)[O-])cc2)cc1NS(=O)(=O)c1ccc(F)cc1F [Compound 109, 3-(2,4-DIFLUORO-BENZENESULFONYLAMINO)-5-(4-NITRO-PHENYL)-THIOPHENE-2-CARBOXYLIC ACID]	< 5 µM
Cc1ccc(C(=O)N(c2cc(-c3ccc(F)cc3)sc2C(=O)O)C(C)C)cc1 [Compound 283, 5-(4-FLUORO-PHENYL)-3-[ISOPROPYL-(4-METHYL-BENZOYL)-AMINO]-THIOPHENE-2-CARBOXYLIC ACID]	< 5 µM
